Source: patent US9604961B2, “Histone demethylase inhibitors” (Celgene Quanticel Research, Inc., priority 2012, dated 2017)

Columns and labels:
Format in all cases: biochemical
JMJD2C = JMJD2C (Homo sapiens (Human), UniProt Q9H3R0); test: JMJD2C in vitro enzyme inhibition assay (TR-FRET)
Experimental: Baculovirus expressed JMJD2C (GenBank Accession #BC143571, AA 2-372) was purchased from BPS Bioscience (Cat#50105).
The ability of test compounds to inhibit the activity of JMJD2C was determined in 384-well plate format under the following reaction conditions: 0.3 nM JMJD2C, 300 nM H3K9me3-biotin labeled peptide (Anaspec cat #64360), 2 μM alpha-ketoglutaric acid in assay buffer of 50 mM HEPES, pH7.3, 0.005% Brij35, 0.5 mM TCEP, 0.2 mg/ml BSA, 50 μM sodium L-ascorbate, and 2 μM ammonium iron(II) sulfate. Reaction product was determined quantitatively by TR-FRET after the addition of detection reagent Phycolink Streptavidin-allophycocyanin (Prozyme) and Europium-anti-di-methylated histone H3 lysine 9 (H3K9me2) antibody (PerkinElmer) in the presence of 5 mM EDTA in LANCE detection buffer (PerkinElmer) at a final concentration of 50 nM and 1 nM, respectively.
The assay reaction was initiated by the following: 2 μl of the mixture of 900 nM H3K9me3-biotin labeled peptide and 6 μM alpha-ketoglutaric acid with 2 μl of 11-point serial diluted inhibitor in 3% DMSO were added to each well of the plate, followed by the addition of 2 μl of 0.9 nM JMJD2C to initiate the reaction. The reaction mixture was incubated at room temperature for 30 minutes, and terminated by the addition of 6 μl of 5 mM EDTA in LANCE detection buffer containing 100 nM Phycolink Streptavidin-allophycocyanin and 2 nM Europium-anti-H3K9me2 antibody. Plates were read by EnVisionMultilabel Reader in TR-FRET mode (excitation at 320 nm, emission at 615 nm and 665 nm) after 1 hour incubation at room temperature. A ratio was calculated (665/615) for each well and fitted to determine inhibition constant (IC50).

Jarid1B = Jarid1B (Homo sapiens (Human), UniProt Q9UGL1); test: Jarid1B in vitro enzyme inhibition assay (TR-FRET)
Experimental: This assay determines the ability of a test compound to inhibit Jarid1A, Jarid1B, JMJD2C, and JMJD2A demethylase activity.
The ability of test compounds to inhibit the activity of Jarid1B was determined in 384-well plate format under the following reaction conditions: 0.8 nM Jarid1B, 300 nM H3K4me3-biotin labeled peptide (Anaspec cat #64357), 2 μM alpha-ketoglutaric acid in assay buffer of 50 mM HEPES, pH7.3, 0.005% Brij35, 0.5 mM TCEP, 0.2 mg/ml BSA, 50 μM sodium L-ascorbate, and 2 μM ammonium iron(II) sulfate. Reaction product was determined quantitatively by TR-FRET after the addition of detection reagent Phycolink Streptavidin-allophycocyanin (Prozyme) and Europium-anti-mono- or di-methylated histone H3 lysine 4 (H3K4me1-2) antibody (PerkinElmer) in the presence of 5 mM EDTA in LANCE detection buffer (PerkinElmer) at a final concentration of 25 nM and 1 nM, respectively.
The assay reaction was initiated by the following: 2 μl of the mixture of 900 nM H3K4me3-biotin labeled peptide and 6 μM alpha-ketoglutaric acid with 2 μl of 11-point serial diluted inhibitor in 3% DMSO was added to each well of the plate, followed by the addition of 2 μl of 2.4 nM Jarid1B to initiate the reaction. The reaction mixture was incubated at room temperature for 30 minutes, and terminated by the addition of 6 μl of 5 mM EDTA in LANCE detection buffer containing 50 nM Phycolink Streptavidin-allophycocyanin and 2 nM Europium-anti-H3K4me1-2 antibody. Plates were read by EnVisionMultilabel Reader in TR-FRET mode (excitation at 320 nm, emission at 615 nm and 665 nm) after 1 hour incubation at room temperature. A ratio was calculated (665/615) for each well and fitted to determine inhibition constant (IC50).

Jarid1A = Jarid1A (Homo sapiens (Human), UniProt P29375); test: Jarid1A in vitro enzyme inhibition assay (TR-FRET)
Sequence of Jarid1A (P29375 1-1090): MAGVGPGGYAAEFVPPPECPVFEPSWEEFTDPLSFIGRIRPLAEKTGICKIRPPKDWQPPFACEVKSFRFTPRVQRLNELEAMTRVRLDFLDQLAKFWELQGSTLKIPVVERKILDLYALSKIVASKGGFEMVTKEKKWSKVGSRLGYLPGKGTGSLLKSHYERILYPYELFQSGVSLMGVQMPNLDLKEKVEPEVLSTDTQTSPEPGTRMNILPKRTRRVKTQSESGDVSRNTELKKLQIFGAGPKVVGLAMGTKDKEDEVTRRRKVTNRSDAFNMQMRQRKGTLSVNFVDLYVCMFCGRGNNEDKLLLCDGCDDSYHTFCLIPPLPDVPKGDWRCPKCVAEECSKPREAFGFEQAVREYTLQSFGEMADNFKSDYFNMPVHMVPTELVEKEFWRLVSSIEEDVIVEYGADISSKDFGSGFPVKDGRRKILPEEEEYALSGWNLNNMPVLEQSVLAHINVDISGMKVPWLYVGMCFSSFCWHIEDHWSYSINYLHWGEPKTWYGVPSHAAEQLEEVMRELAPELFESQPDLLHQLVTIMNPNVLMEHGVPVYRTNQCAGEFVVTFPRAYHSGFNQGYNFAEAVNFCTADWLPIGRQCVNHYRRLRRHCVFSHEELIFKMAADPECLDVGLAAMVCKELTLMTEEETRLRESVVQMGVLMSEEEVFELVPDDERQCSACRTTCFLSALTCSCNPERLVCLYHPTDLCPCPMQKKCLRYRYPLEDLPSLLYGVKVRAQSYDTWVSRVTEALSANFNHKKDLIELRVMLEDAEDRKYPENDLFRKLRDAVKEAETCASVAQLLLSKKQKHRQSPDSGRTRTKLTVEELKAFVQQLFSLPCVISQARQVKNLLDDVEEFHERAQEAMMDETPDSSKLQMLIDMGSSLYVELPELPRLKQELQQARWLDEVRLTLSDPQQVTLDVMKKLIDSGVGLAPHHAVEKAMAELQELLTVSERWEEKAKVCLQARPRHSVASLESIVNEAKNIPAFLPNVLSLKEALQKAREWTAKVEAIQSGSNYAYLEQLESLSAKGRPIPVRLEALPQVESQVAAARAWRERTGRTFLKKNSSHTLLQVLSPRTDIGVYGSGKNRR
From the text: The enzymatic assay of Jarid1A activity is based upon Time Resolved-Fluorescence Resonance Energy Transfer (TR-FRET) detection.

Sequence of Jarid1B (Q9UGL1 2-751): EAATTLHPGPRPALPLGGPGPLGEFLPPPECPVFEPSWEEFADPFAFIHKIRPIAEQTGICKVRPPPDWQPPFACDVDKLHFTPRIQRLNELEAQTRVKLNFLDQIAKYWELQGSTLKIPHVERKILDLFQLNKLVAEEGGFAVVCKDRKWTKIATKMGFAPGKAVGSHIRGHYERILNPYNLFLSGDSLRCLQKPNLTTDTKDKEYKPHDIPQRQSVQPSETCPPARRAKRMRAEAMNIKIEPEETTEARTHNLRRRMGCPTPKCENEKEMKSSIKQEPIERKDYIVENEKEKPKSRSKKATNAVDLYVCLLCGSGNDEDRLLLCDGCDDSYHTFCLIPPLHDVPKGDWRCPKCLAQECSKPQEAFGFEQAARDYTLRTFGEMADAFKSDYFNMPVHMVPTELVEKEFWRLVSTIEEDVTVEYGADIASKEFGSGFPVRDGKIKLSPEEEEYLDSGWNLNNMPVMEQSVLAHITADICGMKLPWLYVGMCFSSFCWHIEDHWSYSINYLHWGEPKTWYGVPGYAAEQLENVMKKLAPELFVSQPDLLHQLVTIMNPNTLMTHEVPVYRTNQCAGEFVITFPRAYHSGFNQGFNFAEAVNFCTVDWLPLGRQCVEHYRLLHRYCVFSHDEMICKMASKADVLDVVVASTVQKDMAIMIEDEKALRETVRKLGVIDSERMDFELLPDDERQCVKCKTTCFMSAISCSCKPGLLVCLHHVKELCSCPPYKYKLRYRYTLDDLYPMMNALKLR
Sequence of JMJD2C (Q9H3R0 2-372): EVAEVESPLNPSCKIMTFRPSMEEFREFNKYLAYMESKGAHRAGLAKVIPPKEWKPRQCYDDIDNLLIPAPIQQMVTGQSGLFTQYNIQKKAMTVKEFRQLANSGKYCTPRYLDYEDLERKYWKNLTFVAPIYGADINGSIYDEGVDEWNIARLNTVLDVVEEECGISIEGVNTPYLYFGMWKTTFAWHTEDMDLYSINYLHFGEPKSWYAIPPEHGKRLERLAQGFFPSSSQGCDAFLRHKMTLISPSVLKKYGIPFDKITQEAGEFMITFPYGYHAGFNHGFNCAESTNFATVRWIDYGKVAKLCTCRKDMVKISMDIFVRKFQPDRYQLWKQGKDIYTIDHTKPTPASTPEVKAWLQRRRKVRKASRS

Row | IC50 (JMJD2C) | IC50 (Jarid1B) | IC50 (Jarid1A) | Compound
1 | 100 to 1000 nM | 100 to 1000 nM | 100 to 1000 nM | Cc1cccc(-c2ccnn2-c2cc(C(=O)O)ccn2)c1 [Example 13, 2-(5-m-tolyl-1H-pyrazol-1-yl)isonicotinic acid]
2 | 100 to 1000 nM | 100 to 1000 nM | 100 to 1000 nM | O=C(O)c1ccnc(-n2nccc2-c2ccc(F)c(F)c2)c1 [Example 15, 2-(5-(3,4-difluorophenyl)-1H-pyrazol-1-yl)isonicotinic acid]
3 | 100 to 1000 nM | 100 to 1000 nM | 100 to 1000 nM | O=C(O)c1ccnc(-n2nccc2-c2cccc(F)c2)c1 [Example 16, 2-(5-(3-fluorophenyl)-1H-pyrazol-1-yl)isonicotinic acid]
4 | 100 to 1000 nM | 100 to 1000 nM | 100 to 1000 nM | O=C(O)c1ccnc(-n2nccc2-c2ccc(O)cc2)c1 [Example 18, 2-(5-(4-hydroxyphenyl)-1H-pyrazol-1-yl)isonicotinic acid]
5 | 1000 to 10000 nM | 100 to 1000 nM | 100 to 1000 nM | CS(=O)(=O)c1ccc(-c2ccnn2-c2cc(C(=O)O)ccn2)cc1 [Example 19, 2-(5-(4-(methylsulfonyl)phenyl)-1H-pyrazol-1-yl)isonicotinic acid]
6 | 1000 to 10000 nM | 100 to 1000 nM | 100 to 1000 nM | COc1cc(-c2ccnn2-c2cc(C(=O)O)ccn2)ccc1C [Example 20, 2-(5-(3-methoxy-4-methylphenyl)-1H-pyrazol-1-yl)isonicotinic acid]
7 | 100 to 1000 nM | < 100 nM | < 100 nM | Cc1ccc(-c2ccnn2-c2cc(C(=O)O)ccn2)cc1O [Example 21, 2-(5-(3-hydroxy-4-methylphenyl)-1H-pyrazol-1-yl)isonicotinic acid]
8 | 1000 to 10000 nM | 100 to 1000 nM | 100 to 1000 nM | COc1cc(-c2ccnn2-c2cc(C(=O)O)ccn2)ccc1Cl [Example 22, 2-(5-(4-chloro-3-methoxyphenyl)-1H-pyrazol-1-yl)isonicotinic acid]
9 | 1000 to 10000 nM | 100 to 1000 nM | 100 to 1000 nM | O=C(O)c1ccnc(-n2nccc2-c2ccc(Cl)c(O)c2)c1 [Example 23, 2-(5-(4-chloro-3-hydroxyphenyl)-1H-pyrazol-1-yl)isonicotinic acid]
10 | 1000 to 10000 nM | 100 to 1000 nM | 100 to 1000 nM | O=C(O)c1ccnc(-n2nccc2-c2ccc3cn[nH]c3c2)c1 [Example 24, 2-[5-(1H-indazol-6-yl)-1H-pyrazol-1-yl]pyridine-4-carboxylic acid]
11 | 1000 to 10000 nM | 1000 to 10000 nM | 1000 to 10000 nM | O=C(O)c1ccnc(-n2nccc2-c2ccccc2)c1 [Example 26, 2-(5-phenyl-1H-pyrazol-1-yl)isonicotinic acid]
12 | 1000 to 10000 nM | 100 to 1000 nM | 100 to 1000 nM | CS(=O)(=O)c1ccc(-c2ccnn2-c2cc(C(=O)O)ccn2)cc1O [Example 28, 2-(5-(3-hydroxy-4-(methylsulfonyl)phenyl)-1H-pyrazol-1-yl)isonicotinic acid]
13 | 1000 to 10000 nM | 1000 to 10000 nM | 1000 to 10000 nM | Cc1ccc(-c2cc(C)nn2-c2cc(C(=O)O)ccn2)cc1 [Example 29, 2-(3-methyl-5-p-tolyl-1H-pyrazol-1-yl)isonicotinic acid]
14 | 1000 to 10000 nM | 100 to 1000 nM | 1000 to 10000 nM | CCc1cc(-c2ccc(C)cc2)n(-c2cc(C(=O)O)ccn2)n1 [Example 30, 2-(3-ethyl-5-p-tolyl-1H-pyrazol-1-yl)isonicotinic acid]
15 | 100 to 1000 nM | 1000 to 10000 nM | 1000 to 10000 nM | Cc1ccnn1-c1cc(C(=O)O)ccn1 [Example 31, 2-(5-methyl-1H-pyrazol-1-yl)isonicotinic acid]
16 | > 10000 nM | 1000 to 10000 nM | 1000 to 10000 nM | O=C(O)c1ccnc(-n2nccc2CCc2ccccc2)c1 [Example 34, 2-(5-phenethyl-1H-pyrazol-1-yl)isonicotinic acid]
17 | > 10000 nM | 100 to 1000 nM | 100 to 1000 nM | Cc1c(-c2ccccc2)cnn1-c1cc(C(=O)O)ccn1 [Example 36, 2-(5-methyl-4-phenyl-1H-pyrazol-1-yl)isonicotinic acid]
18 | 1000 to 10000 nM | 1000 to 10000 nM | 1000 to 10000 nM | COc1cc(C)nn1-c1cc(C(=O)O)ccn1 [Example 37, 2-(5-methoxy-3-methyl-1H-pyrazol-1-yl)isonicotinic acid]
19 | 100 to 1000 nM | < 100 nM | 100 to 1000 nM | Cc1cc(OCc2ccccc2)n(-c2cc(C(=O)O)ccn2)n1 [Example 38, 2-(5-(benzyloxy)-3-methyl-1H-pyrazol-1-yl)isonicotinic acid]
20 | < 100 nM | < 100 nM | < 100 nM | O=C(O)c1ccnc(-n2nccc2OCc2cccc(F)c2)c1 [Example 41, 2-{5-[(3-fluorobenzyl)oxy]-1H-pyrazol-1-yl}pyridine-4-carboxylic acid]

Row | IC50 (JMJD2C) | IC50 (Jarid1B) | IC50 (Jarid1A) | Compound
21 | < 100 nM | < 100 nM | < 100 nM | COc1cccc(COc2ccnn2-c2cc(C(=O)O)ccn2)c1 [Example 42, 2-{5-[(3-methoxybenzyl)oxy]-1H-pyrazol-1-yl}pyridine-4-carboxylic acid]
22 | 100 to 1000 nM | < 100 nM | < 100 nM | COc1ccc(COc2ccnn2-c2cc(C(=O)O)ccn2)cc1 [Example 43, 2-{5-[(4-methoxybenzyl)oxy]-1H-pyrazol-1-yl}pyridine-4-carboxylic acid]
23 | > 10000 nM | 1000 to 10000 nM | 1000 to 10000 nM | CCCCc1ccnn1-c1cc(C(=O)O)ccn1 [Example 44, 2-(5-butyl-1H-pyrazol-1-yl)pyridine-4-carboxylic acid]
24 | 100 to 1000 nM | 100 to 1000 nM | 100 to 1000 nM | CCCCc1ccn(-c2cc(C(=O)O)ccn2)n1 [Example 45, 2-(3-butyl-1H-pyrazol-1-yl)pyridine-4-carboxylic acid]
25 | 1000 to 10000 nM | 100 to 1000 nM | 100 to 1000 nM | O=C(O)c1ccnc(-n2nccc2-c2ccc(Br)cc2)c1 [Example 46, 2-[5-(4-bromophenyl)-1H-pyrazol-1-yl]pyridine-4-carboxylic acid]
26 | 1000 to 10000 nM | 100 to 1000 nM | 100 to 1000 nM | CN(C)c1ccc(-c2ccnn2-c2cc(C(=O)O)ccn2)cc1 [Example 47, 2-{5-[4-(dimethylamino)phenyl]-1H-pyrazol-1-yl}pyridine-4-carboxylic acid]
27 | 1000 to 10000 nM | 100 to 1000 nM | < 100 nM | Cc1ccc(-c2cc(N)nn2-c2cc(C(=O)O)ccn2)cc1 [Example 48, 2-[3-amino-5-(4-methylphenyl)-1H-pyrazol-1-yl]pyridine-4-carboxylic acid]
28 | 100 to 1000 nM | < 100 nM | < 100 nM | O=C(O)c1ccnc(-n2nccc2OCc2ccc(F)c(F)c2)c1 [Example 52, 2-{5-[(3,4-difluorobenzyl)oxy]-1H-pyrazol-1-yl}pyridine-4-carboxylic acid]
29 | < 100 nM | < 100 nM | < 100 nM | O=C(O)c1ccnc(-n2nccc2OCc2ccc(Cl)cc2)c1 [Example 53, 2-{5-[(4-chlorobenzyl)oxy]-1H-pyrazol-1-yl}pyridine-4-carboxylic acid]
30 | 100 to 1000 nM | < 100 nM | < 100 nM | O=C(O)c1ccnc(-n2nccc2OCc2ccc(C(F)(F)F)cc2)c1 [Example 54, 2-(5-{[4-(trifluoromethyl)benzyl]oxy}-1H-pyrazol-1-yl)pyridine-4-carboxylic acid]
31 | < 100 nM | < 100 nM | < 100 nM | O=C(O)c1ccnc(-n2nccc2OCc2cccc(Cl)c2)c1 [Example 58, 2-{5-[(3-chlorobenzyl)oxy]-1H-pyrazol-1-yl}pyridine-4-carboxylic acid]
32 | < 100 nM | < 100 nM | < 100 nM | O=C(O)c1ccnc(-n2nccc2OCc2ccccc2F)c1 [Example 59, 2-{5-[(2-fluorobenzyl)oxy]-1H-pyrazol-1-yl}pyridine-4-carboxylic acid]
33 | 100 to 1000 nM | < 100 nM | < 100 nM | O=C(O)c1ccnc(-n2nccc2OCc2cccnc2)c1 [Example 60, 2-[5-(pyridin-3-ylmethoxy)-1H-pyrazol-1-yl]pyridine-4-carboxylic acid]
34 | < 100 nM | < 100 nM | < 100 nM | O=C(O)c1ccnc(-n2nccc2OCc2ccncc2)c1 [Example 61, 2-[5-(pyridin-4-ylmethoxy)-1H-pyrazol-1-yl]pyridine-4-carboxylic acid]
35 | 100 to 1000 nM | < 100 nM | < 100 nM | O=C(O)c1ccnc(-n2nccc2OCC2CCC(F)(F)CC2)c1 [Example 71, 2-{5-[(4,4-difluorocyclohexyl)methoxy]-1H-pyrazol-1-yl}pyridine-4-carboxylic acid]
36 | < 100 nM | < 100 nM | < 100 nM | O=C(O)c1ccnc(-n2nccc2OCc2cccc(O)c2)c1 [Example 73, 2-{5-[(3-hydroxybenzyl)oxy]-1H-pyrazol-1-yl}pyridine-4-carboxylic acid]
37 | < 100 nM | < 100 nM | < 100 nM | O=C(O)c1ccnc(-n2nccc2OCc2ccc(Cl)cc2F)c1 [Example 75, 2-{5-[(4-chloro-2-fluorobenzyl)oxy]-1H-pyrazol-1-yl}pyridine-4-carboxylic acid]
38 | < 100 nM | < 100 nM | < 100 nM | O=C(O)c1ccnc(-n2nccc2OCc2ccc(F)c(Cl)c2)c1 [Example 76, 2-{5-[(3-chloro-4-fluorobenzyl)oxy]-1H-pyrazol-1-yl}pyridine-4-carboxylic acid]
39 | 100 to 1000 nM | < 100 nM | < 100 nM | O=C(O)c1ccnc(-n2nccc2OCc2ccc(C3CC3)cc2)c1 [Example 77, 2-{5-[(4-cyclopropylbenzyl)oxy]-1H-pyrazol-1-yl}pyridine-4-carboxylic acid]

Row | Compound | IC50 (JMJD2C) | IC50 (Jarid1B) | IC50 (Jarid1A)
40 | 2-{5-[(2-methyl-2H-indazol-5-yl)methoxy]-1H-pyrazol-1-yl}pyridine-4-carboxylic acid [Example 51] | 100 to 1000 nM | < 100 nM | < 100 nM
